Data published in ChEMBL document CHEMBL4837190, “Targeted Isolation of Hemitheion from Mostuea brunonis, a Proposed Biosynthetic Intermediate of Theionbrunonines” (J Nat Prod, 2021).

Assays:
Plasmodium falciparum = experiment: Antiplasmodial activity against chloroquine-resistant Plasmodium falciparum FcB1/Colombia infected in human red blood cells assessed as reduction in [3H]-hypoxanthine incorporation measured after 24 hrs liquid scintillation counting method; type: functional, organism-based, RBC; details: Erythrocyte
MRC5 = experiment: Cytotoxicity against human MRC5 cells assessed as growth inhibition measured after 72 hrs by MTS assay; type: cell-based; details: MRC5, 72 h

SMILES | IC50 (Plasmodium falciparum) [µM] | IC50 (MRC5) [µM]
C/C=C1/CN(C)[C@@H]2Cc3c([nH]c4ccccc34)[C@@H](S)C[C@H]1[C@H]2C(=O)OC | 1.05 | > 50
C/C=C1/CN(C)[C@@H]2Cc3c([nH]c4ccccc34)C(=O)C[C@H]1[C@H]2C(=O)OC | 22.5 | > 50
CC[C@H]1N[C@H]2C[C@@]3(C(=O)N(OC)c4ccccc43)[C@@H]3C[C@@H]1[C@@H]2CO3 | 42.5 | > 50
CC[C@H]1N[C@H]2C[C@@]3(C(=O)N(OC)c4cc(OC)ccc43)[C@@H]3C[C@@H]1[C@@H]2CO3 | 59.5 | > 50
